Source: patent publication US20110071150A1 (priority 2009, published 2011)

The molecules below were run on Jurkat IL-2 Production (assay: Jurkat IL-2 Production Assay). Conditions: Homo sapiens, Jurkat cell (ATCC), 18-20 h incubation, PHA 5 μg/mL with 1% FBS, or PMA/Ionomycin with 30% FBS (table does not say which).
Format: cell-based
Method in brief: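 Jurkat cells were exposed to compound (0.25% DMSO final) for 10 min, then stimulated for 18–20 h at 37 °C. The 1% FBS condition used 5 μg/mL PHA; the high-serum condition (30% FBS) used 50 ng/mL PMA plus 500 ng/mL ionomycin. IC50 was derived from IL-2 production.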
Molecule `CCn1nc(-c2cccnc2)cc1-c1ccc2[nH]c(-c3c(F)cccc3Cl)cc2c1` [Example 49, 2-(2-Chloro-6-fluoro-phenyl)-5-(2-ethyl-5-pyridin-3-yl-2H-pyrazol-3-yl)-1H-indole] has an IC50 of 13 nM. With `CCn1nc(C(F)(F)F)cc1-c1ccc2[nH]c(-c3c(F)cccc3F)cc2c1` [Example 46, 2-(2,6-Difluoro-phenyl)-5-(2-ethyl-5-trifluoromethyl-2H-pyrazol-3-yl)-1H-indole] the IC50 was 44 nM. `Cc1cnccc1-c1cc2cc(-c3cc(C(F)(F)F)nn3C)ccc2[nH]1` [Example 37, 2-(3-Methyl-pyridin-4-yl)-5-(2-methyl-5-trifluoromethyl-2H-pyrazol-3-yl)-1H-indole] gave an IC50 of 120 nM. `Cc1ccccc1-c1cc2cc(-c3cc(C4CC4)nn3C)ccc2[nH]1` [Example 62, 5-(5-Cyclopropyl-2-methyl-2H-pyrazol-3-yl)-2-o-tolyl-1H-indole] showed an IC50 of 964 nM. `Cc1cc(C#N)ccc1-c1ccc2[nH]c(-c3cc(C#N)ccc3Cl)cc2c1` [Example 138, 4-(2-(2-Chloro-5-cyanophenyl)-1H-indol-5-yl)-3-methylbenzonitrile] showed an IC50 of 101 nM. For `CCn1nc(-c2ccccc2)cc1-c1ccc2[nH]c(-c3c(F)cccc3F)cc2c1` [Example 15, 2-(2,6-difluoro-phenyl)-5-(2-ethyl-5-phenyl-2H-pyrazol-3-yl)-1H-indole], the IC50 was 468 nM. `CCn1nc(-c2cccnc2)cc1-c1ccc2[nH]c(-c3ccccc3F)cc2c1` [Example 76, 2-(2-Fluoro-phenyl)-5-(2-ethyl-5-pyridin-3-yl-2H-pyrazol-3-yl)-1H-indole] was tested, and the IC50 was 108 nM. Work on `Cn1nc(Br)cc1-c1ccc2[nH]c(-c3c(F)cccc3F)cc2c1` [Example 111, 5-(5-Bromo-2-methyl-2H-pyrazol-3-yl)-2-(2,6-difluoro-phenyl)-1H-indole] yielded an IC50 of 318 nM. `Cc1cc(C#N)ccc1-c1ccc2[nH]c(-c3ccccc3Cl)cc2c1` [Example 129, 4-[2-(2-Chloro-phenyl)-1H-indol-5-yl]-3-methyl-benzonitrile] gave an IC50 of 237 nM. With `Cn1nc(-c2ccccn2)nc1-c1ccc2[nH]c(-c3c(F)cccc3Cl)cc2c1` [Example 184, 2-(2-Chloro-6-fluoro-phenyl)-5-(2-methyl-5-pyridin-2-yl-2H-[1,2,4]-triazol-3-yl)-1H-indole] the IC50 was 148 nM. `CC(C)c1sc(-c2cnccn2)nc1-c1ccc2[nH]c(-c3c(F)cccc3Cl)cc2c1` [Example 181, 2-(2-Chloro-6-fluoro-phenyl)-5-(5-isopropyl-2-pyrazin-2-yl-thiazol-4-yl)-1H-indole] was tested, and the IC50 was 56 nM. Work on `Cn1nc(-c2cccnc2)cc1-c1ccc2[nH]c(-c3ccc(F)cc3Cl)cc2c1` [Example 86, 2-(2-Chloro-4-fluoro-phenyl)-5-(2-methyl-5-pyridin-3-yl-2H-pyrazol-3-yl)-1H-indole] yielded an IC50 of 118 nM. `Cc1cc(-c2cnc(N)nc2)ncc1-c1ccc2[nH]c(-c3c(F)cccc3F)cc2c1` [Example 209, 5-{5-[2-(2,6-Difluoro-phenyl)-1H-indol-5-yl]-4-methyl-pyridin-2-yl}-pyrimidin-2-ylamine] was tested, and the IC50 was 54 nM. Work on `Cn1nc(-c2ccccn2)cc1-c1ccc2[nH]c(-c3ccccc3Cl)cc2c1` [Example 81, 2-(2-Chloro-phenyl)-5-(2-methyl-5-pyridin-2-yl-2H-pyrazol-3-yl)-1H-indole] yielded an IC50 of 501 nM. In the case of `COC(=O)c1ccc(-c2ccc3[nH]c(-c4ccc(C(=O)OC)cc4C)cc3c2)c(C)c1` [Example 131, 4-[5-(4-carbomethoxy-2-methyl-phenyl)-1H-indol-2-yl]-3-methyl-benzoic acid methyl ester], the IC50 is reported as 149 nM. Work on `Cc1cc(C#N)ccc1-c1ccc2[nH]c(-c3c(C)noc3C)cc2c1` [Example 151, 4-(2-(3,5-dimethylisoxazol-4-yl)-1H-indol-5-yl)-3-methylbenzonitrile] yielded an IC50 of 158 nM. `Cn1nc(-c2ccncc2)cc1-c1ccc2[nH]c(-c3c(F)cccc3F)cc2c1` [Example 17, 2-(2,6-Difluoro-phenyl)-5-(2-methyl-5-pyridin-4-yl-2H-pyrazol-3-yl)-1H-indole] was tested, and the IC50 was 57 nM. For `Cc1ccc(-c2ncco2)cc1-c1ccc2[nH]c(-c3c(F)cccc3F)cc2c1` [Example 23, 2-(2,6-Difluoro-phenyl)-5-(2-methyl-5-oxazol-2-yl-phenyl)-1H-indole], the IC50 was 210 nM. With `Cc1cc(C#N)ccc1-c1ccc2[nH]c(-c3cnccc3C)cc2c1` [Example 144, methyl-4-(2-(4-methylpyridin-3-yl)-1H-indol-5-yl)benzonitrile] the IC50 was 96 nM. `CCn1nc(C(F)(F)F)cc1-c1ccc2[nH]c(-c3ccncc3C)cc2c1` [Example 189, 5-(1-ethyl-3-(trifluoromethyl)-1H-pyrazol-5-yl)-2-(3-methylpyridin-4-yl)-1H-indole] showed an IC50 of 76 nM. Molecule `Cc1cc(S(C)(=O)=O)ncc1-c1ccc2[nH]c(-c3cnccc3C)cc2c1` [Example 214, 5-(6-Methanesulfonyl-4-methyl-pyridin-3-yl)-2-(4-methyl-pyridin-3-yl)1indole] has an IC50 of 41 nM. Work on `Cc1nc(-c2ccccc2)sc1-c1ccc2[nH]c(-c3ccccc3Cl)cc2c1` [Example 7, 2-(2-Chloro-phenyl)-5-(4-methyl-2-phenyl-thiazol-5-yl)-1H-indole] yielded an IC50 of 800 nM. `COc1ccc(F)c(-c2cc3cc(-c4ccc(C#N)cc4C)ccc3[nH]2)c1F` [Example 142, 4-(2-(2,6-difluoro-3-methoxyphenyl)-1H-indol-5-yl)-3-methylbenzonitrile] showed an IC50 of 167 nM. With `Cc1nnc(-c2cc(C)c(-c3ccc4[nH]c(-c5c(F)cccc5Cl)cc4c3)cn2)o1` [Example 120, 2-(2-Chloro-6-fluoro-phenyl)-5-[4-methyl-6-(5-methyl-[1,3,4]oxadiazol-2-yl)-pyridin-3-yl]-1H-indole] the IC50 was 19 nM. `Cc1cc(C#N)ccc1-c1ccc2[nH]c(-c3cccc(C#N)c3F)cc2c1` [Example 134, 4-[2-(2-Fluoro-3-cyano-phenyl)-1H-indol-5-yl]-3-methyl-benzonitrile] was tested, and the IC50 was 163 nM. Work on `COc1cc(C)c(-c2ccc3[nH]c(-c4c(F)cccc4Cl)cc3c2)cn1` [Example 121, 2-(2-Chloro-6-fluoro-phenyl)-5-(6-methoxy-4-methyl-pyridin-3-yl)-1H-indole] yielded an IC50 of 12 nM. Molecule `Cc1sc(C2CC2)nc1-c1ccc2[nH]c(-c3c(F)cccc3F)cc2c1` [Example 72, 5-(2-Cyclopropyl-5-methyl-thiazol-4-yl)-2-(2,6-difluoro-phenyl)-1H-indole] has an IC50 of 397 nM. Work on `COCCOc1cc(F)c(-c2cc3cc(-c4ccc(C#N)cc4C)ccc3[nH]2)c(F)c1` [Example 153, 4-(2-(2,6-difluoro-4-(2-methoxyethoxy)phenyl)-1H-indol-5-yl)-3-methylbenzonitrile] yielded an IC50 of 331 nM. `Cn1nc(-c2ccccn2)cc1-c1ccc2[nH]c(-c3ccc(F)cc3Cl)cc2c1` [Example 83, 2-(2-Chloro-4-fluoro-phenyl)-5-(2-methyl-5-pyridin-2-yl-2H-pyrazol-3-yl)-1H-indole] gave an IC50 of 358 nM. Molecule `Cc1cccc(C)c1-c1cc2cc(-c3nc(-c4cccnc4)sc3C)ccc2[nH]1` [Example 218, 2-(2,6-Dimethyl-phenyl)-5-(5-methyl-2-pyridin-3-yl-thiazol-4-yl)-1H-indole] has an IC50 of 110 nM. With `CCn1nc(-c2cccnc2)nc1-c1ccc2[nH]c(-c3c(F)cccc3F)cc2c1` [Example 205, 2-(2,6-Difluoro-phenyl)-5-(2-ethyl-5-pyridin-3-yl-2H-[1,2,4]triazol-3-yl)-1H-indole] the IC50 was 24 nM. Molecule `Cn1nc(-c2cncnc2)nc1-c1ccc2[nH]c(-c3c(F)cccc3Cl)cc2c1` [Example 188, 2-(2-Chloro-6-fluoro-phenyl)-5-(2-methyl-5-pyrimidin-5-yl-2H-[1,2,4]triazol-3-yl)-1H-indole] has an IC50 of 44 nM. With `Cc1cc(C#N)ccc1-c1ccc2[nH]c(-c3cccnc3C)cc2c1` [Example 147, methyl-4-(2-(2-methylpyridin-3-yl)-1H-indol-5-yl)benzonitrile] the IC50 was 311 nM. With `Cc1sc(C2CCOCC2)nc1-c1ccc2[nH]c(-c3c(F)cccc3F)cc2c1` [Example 74, 2-(2,6-Difluoro-phenyl)-5-[5-methyl-2-(tetrahydro-pyran-4-yl)-thiazol-4-yl]-1H-indole] the IC50 was 668 nM. With `CCn1nc(C(F)(F)F)cc1-c1ccc2[nH]c(C3CCN(C(C)=O)CC3)cc2c1` [Example 200, 1-(4-(5-(1-ethyl-3-(trifluoromethyl)-1H-pyrazol-5-yl)-1H-indol-2-yl)piperidin-1-yl)ethanone] the IC50 was 220 nM. Work on `Cc1ccccc1-c1cc2cc(-c3cc(C(F)(F)F)nn3C)ccc2[nH]1` [Example 60, 5-(2-Methyl-5-trifluoromethyl-2H-pyrazol-3-yl)-2-o-tolyl-1H-indole] yielded an IC50 of 140 nM. For `Cc1sc(-c2ccccn2)nc1-c1ccc2[nH]c(-c3ccccc3Cl)cc2c1` [Example 5, 2-(2-Chloro-phenyl)-5-(5-methyl-2-pyridin-2-yl-thiazol-4-yl)-1H-indole], the IC50 was 223 nM. `Cc1sc(-c2ccccn2)nc1-c1ccc2[nH]c(-c3cc(F)ccc3Cl)cc2c1` [Example 58, 2-(2-Chloro-5-fluoro-phenyl)-5-(5-methyl-2-pyridin-2-yl-thiazol-4-yl)-1H-indole] gave an IC50 of 689 nM. `Cc1cc(-c2nnco2)ccc1-c1ccc2[nH]c(-c3c(F)cccc3Cl)cc2c1` [Example 115, 2-(2-Chloro-6-fluoro-phenyl)-5-(2-methyl-4-[1,3,4]oxadiazol-2-yl-phenyl)-1H-indole] gave an IC50 of 38 nM. In the case of `Fc1cccc(Cl)c1-c1cc2cc(-c3ccc(C(F)(F)F)cc3C(F)(F)F)ccc2[nH]1` [Example 55, 5-(2,4-Bis-trifluoromethyl-phenyl)-2-(2-chloro-6-fluoro-phenyl)-1H-indole], the IC50 is reported as 79 nM. Molecule `CCc1sc(-c2cccnc2)nc1-c1ccc2[nH]c(-c3c(F)cccc3Cl)cc2c1` [Example 175, 4-[2-(2-chloro-6-fluorophenyl)-1H-indol-5-yl]-5-ethyl-2-(pyridin-3-yl)thiazole] has an IC50 of 11 nM.
